{"source": "patent US6911460B2", "about": "“Antiviral agents and methods of treating viral infections” (Vion Pharmaceuticals, Inc., priority 2001, dated 2005)", "key": {"HSV-1 (KOS)": {"system": "HSV-1 (KOS)", "experiment": "Virus yield assay, Triapine plus acyclovir against HSV-1", "assay_type": "cell-based, herpes simplex virus", "conditions": "for EC90: virus yield assay, 48 hr, combinations: ACV with fixed Triapine concentration", "protocol": "(§1) To evaluate the antiviral activities of Triapine, acyclovir, and combination thereof, HeLa S3 cells are seeded in 25-cm^2 flasks and are used as host cells for virus infection (laboratory strains of virus HSV-1, HSV-2, wild type (Darby et al., (1982) Nature, 289, 81-3; Cheng, et al., Antimicrob. Agents Chemother. 18, 957-61, 1980). After a 1-hr adsorption period with virus at 5-10 plaque-forming units per cell, the monolayers are rinsed with phosphate-buffered saline, followed by the addition of 5 ml of growth medium containing various concentrations of drug. Concentrations of Triapine tested range from 0.1 to 1.0 micromolar where concentrations of acyclovir are from 1-50 micromolar. The cells are incubated at 37° C. for 48 hr and then are stored frozen at −70° C. until titration. The amounts of HSV contained in cells are determined with Vero cells using the methods described by Cheng et al. (Cheng, et al., Antimicrob. Agents Chemother. 18, 957-61, 1980).\n(§2) The results of the above-test are presented in the following Table 1, below, which presents the antiviral activity of Triapine, at low, non-toxic clinically achievable concentrations of 0.3, 0.6 and 1.0 μM, in combination with acyclovir against HSV-1 (KOS) and HSV-2 (333) strains of herpes simplex virus in a virus yield assay. […] A greater than 4-fold decrease in the EC90 of ACV against HSV-2 is observed with 0.6 μM Triapine."}, "HSV-2 (333)": {"system": "HSV-2 (333)", "experiment": "Virus yield assay, Triapine plus acyclovir against HSV-2", "assay_type": "cell-based, herpes simplex virus", "conditions": "for EC90: virus yield assay, 48 hr, combinations: ACV with fixed Triapine concentration", "protocol": "as §1, §2"}, "[1]": {"system": "acyclovir-resistant HSV strains", "conditions": "in combination with acyclovir; cited from earlier work"}, "strain IIIB of HIV": {"system": "strain IIIB of HIV", "experiment": "Anti-HIV activity of Triapine combinations in HIV-infected MT-2 cells (MTT, isobolograms)", "assay_type": "cell-based, HIV-1", "conditions": "FIG. 4", "method": "MT-2 cells infected with strain IIIB of HIV (wildtype, 3TC resistant, or AZT resistant) are used for determining antiviral activities (Bridges et al., Biochem. Pharmacol. Vol. 51, 731-36, 1996). Cells are infected with virus at a multiplicity of infection of 0.1 TCID50/ml and added to wells containing serial 2-fold dilutions of drugs. MT-2 cells in RPMI 1640 medium supplemented with 10% dialyzed fetal bovine serum and 100 μg/mL Kanamnycin are infected with virus and immediately added to serial dilutions of the drugs. After 5 days, 20 μL of MTT dye (2.5 mg/mL in PBS) is added per well. At the end of the 4-h incubation period, 150 μL of acidified 2-propanol with 2% NP-40 nonionic detergent is added per well. After the crystals of dye are dissolved (usually 1-2 days), the plates are read on a microplate reader. Using this MTT-dye reduction method (Larder et al., (1990), Antimicrob. Agents Chemother. 34, 436-41), the percentage of protection can be calculated from the formula [(a−b)/(c−b)×100] in which a is the A595 of drug-treated virus-infected wells, b is the A595 of no-drug infected cells, and c is the A595 of the no-drug uninfected cells. The EC50 was calculated from linear log 10 plots of the percentage protection verses inhibition concentration.\nUsing the above-described experimental system, the ability of Triapine to potentiate the anti-HIV activity of the dideoxynucleoside analogs ddI (2′,3′-dideoxyinosine), D4T (2′,3′-dideoxydidehydrothymidine) and AZT (3′-azidothymidine) was examined in HIV-infected MT-2 cells (as described above)."}, "[2]": {"parameters": "dose or concentration left out as unconfirmed", "conditions": "cancer patients, 96-hour infusion; cited from earlier work"}, "[3]": {"experiment": "Solubility in aqueous solution"}, "HIV-infected cells": {"system": "HIV-infected cells", "conditions": "combined with 2′,3′-dideoxyinosine (DDI); cited from earlier work"}}, "data": [{"smiles": "Nc1nc2c(ncn2COCCO)c(=O)[nH]1", "note": "[ACV, acyclovir]", "values": [{"measurement": "decrease of the EC90 of ACV", "setting": "HSV-1 (KOS); HSV-1, in the presence of 0.3 μM Triapine", "value": 10, "unit": "fold"}, {"measurement": "decrease of the EC90 of ACV", "setting": "HSV-1 (KOS); HSV-1, in the presence of 0.6 μM Triapine", "value": "greater than 24 fold"}, {"measurement": "EC90", "setting": "HSV-1 (KOS); Human alphaherpesvirus 1", "value": 29.3, "unit": "µM"}, {"measurement": "decrease in the EC90 of ACV", "setting": "HSV-2 (333); HSV-2, with 0.6 μM Triapine", "value": "greater than 4 fold"}, {"measurement": "EC90", "setting": "HSV-2 (333); Human alphaherpesvirus 2", "value": 36.5, "unit": "µM"}]}, {"smiles": "CC[C@@H](NC(=O)[C@@H](CC(=O)[C@@H](CC(=O)[C@@H](NC(=O)[C@H](C(C)C)N(C)C(=O)[C@H](C)CC1CCCCC1)C(C)(C)C)CC(=O)C(C)(C)C)C1(C(=O)O)CCCC1)C(C)(C)C", "note": "[BILD1633 SE]", "values": [{"measurement": "activity against acyclovir-resistant HSV strains", "setting": "[1]", "value": "had activity"}]}, {"smiles": "NC(=S)NN=Cc1ncccc1N", "note": "[Triapine, 3-aminopyridine-2-carboxyaldehyde thiosemicarbazone]", "values": [{"measurement": "EC90", "setting": "HSV-1 (KOS)", "value": "> 1", "unit": "µM"}, {"measurement": "EC90", "setting": "HSV-2 (333)", "value": "> 1", "unit": "µM"}, {"measurement": "anti-HIV interaction (isobologram)", "setting": "strain IIIB of HIV; combined with AZT", "value": "additive"}, {"measurement": "anti-HIV interaction (isobologram)", "setting": "strain IIIB of HIV; combined with D4T", "value": "synergistic"}, {"measurement": "anti-HIV interaction (isobologram)", "setting": "strain IIIB of HIV; combined with ddI", "value": "synergistic"}, {"measurement": "concentration of Triapine reached", "setting": "[2]", "value": 1.0, "unit": "µM"}, {"measurement": "solubility in aqueous solution", "setting": "[3]", "value": "less than 0.1 mg/ml"}]}, {"smiles": "NC(=O)NO", "note": "[hydroxyurea]", "values": [{"measurement": "effects against HIV-infected cells in combination", "setting": "HIV-infected cells", "value": "synergistic effects"}]}]}
